Reference: patent US9993554B2 (CENTRO NACIONAL DE INVESTIGACIONES ONCOLOGICAS (CNIO), priority 2010, dated 2018)

Key:
phospho-Ser-473-Akt = assay: AKT phosphorylation inhibition, Western blot cell assay; assay type: cell-based; conditions: Homo sapiens; read-out: IC50, cell assay (p-AKT Western Blot)
Procedure: The cell lines were obtained from the American Type Culture Collection (ATCC). U2OS (human osteosarcoma) was cultured in Dulbecco's modified Eagle's medium (DMEM). PC3 (human prostate carcinoma), MCF7 (human breast cardinoma), HCT116 (human colon carcinoma), 768-0 (human neuroblastoma), U251 (human glyoblastoma) were grown in RPMI. All media were supplemented with 10% fetal bovine serum (FBS) (Sigma) and antibiotics-antimycotics. Cell were maintained in a humidified incubator at 37° C. with 5% CO2 and passaged when confluent using trypsin/EDTA.
Subconfluent cells were incubated under different conditions and washed twice with TBS prior to lysis. Lysis buffer was added containing 50 mM Tris HCl, 150 mM NaCl, 1% NP-40, 2 mM Na3VO4, 100 mM NaF, 20 mM Na4P2O7 and protease inhibitor cocktail (Roche Molecular Biochemicals). The proteins were resolved on 10% SDS-PAGE and transferred to nitrocellulose membrane (Schleicher & Schuell, Dassel, Germany). The membranes were incubated overnight at 4° C. with antibodies specific for Akt, phospho-Ser-473-Akt (Cell Signaling Technology) and α-tubulin (Sigma), they were washed and then incubated with IRDye800 conjugated anti-mouse and Alexa Fluor 680 goat anti-rabbit IgG secondary antibodies. The bands were visualized using an Odyssey infrared imaging system (Li-Cor Biosciences).

[1] = tested on: 282 additional kinases including mTOR and DNAPK; assay: Inhibition of additional kinases (panel); assay type: biochemical
[2] = tested on: Preadipocytes 3T3-L1 ectopically expressing C/Ebpβ differentiated into brown adipocytes; assay: 3T3-L1/C/Ebpβ differentiated brown adipocytes treated with PI3Ki; assay type: cell-based; conditions: 1 μM, 4 h
Procedure: Mouse Embryonic Fibroblasts (MEFs) were isolated at E13.5 as previously described^42. For insulin stimulation, primary MEFs were serum starved (0% FBS) for 12 h, followed by 60 min incubation with PBS and then stimulated with 1 μg/ml of insulin (Sigma) during 30 min. For oncogenic transformation, primary MEFs were retrovirally transduced with pLXSN-neo-E6 and either pWZL-blast-middle-T (kindly provided by Jean Zhao, Dana-Farber Cancer Institute, Boston) or pBABE-puro-EGFRL858R (kindly provided by William Sellers and Matthew Meyerson, Addgene plasmid #11012)^43. After the corresponding drug selection 20,000 cells were plated in 10 cm diameter plates, and 2 weeks later were fixed and stained with 20% Giemsa. Immortalized brown adipocyte cell lines were obtained from the interscapular BAT of 3-5 day-old neonates, treated with and cultured as previously described^33. For immortalization, cultures were retrovirally transduced with Large-T antigen (in vector pBABE-puro, kindly provided by James de Caprio, Dana Farber Cancer Institute, Boston). For the reprogramming of 3T3-L1 adipocytes into brownadipocytes, we followed the method previously reported^50. Briefly, 3T3-L1 cells were retrovirally transduced with pBABE-puro-Cebpb (kindly provided by Roger R. Gomis, IRB, Barcelona). After drug selection with puromycin, cells were grown to confluence and subsequently cultured for 48 h with “differentiation medium” (DMEM 10% FBS, 20 nM insulin, 1 nM T3, 1 μM rosiglitazone, 0.5 mM isobutylmethylxanthine, 125 nM indomethacin, 5 μM dexamethasone). After this, cells were exposed to “maintenance medium” (DMEM 10% FBS, 20 nM insulin, 1 nM T3) for 4 days. […]
Total RNA from tissues or fibroblasts was extracted using TRIZOL (Invitrogen). Reverse transcription was performed using random primers and Ready-To-Go™ You-Prime First-Strand Beads (GE Healthcare). Quantitative real time-PCR was performed using DNA Master Sybr Green I mix (Applied Biosystems) in an ABI PRISM 7700 thermocycler (Applied Biosystem). […]

[3] = tested on: obese mice under high-fat diet; assay: Adiposity by dual X-ray absorptiometry (DXA) in treated obese mice; assay type: in vivo; conditions: 2 weeks treatment
Procedure: Mice treated as in FIG. 22 were subjected to dual X-ray absorptiometry (DXA) to determine their relative content of fat and lean tissues (the head and the bone mass is not measured). Determinations were performed one week before starting the treatment (day −7 or D−7), in the middle of the 2 weeks treatment (day 7 or D7, and at the end of the treatment (day 14 or D14). The content of fat is expressed as the percentage of fat relative to the combined fat and lean mass (upper panel). The absolute lean mass is also shown (lower panel). The two panels include data from the assay shown in FIG. 22, as well as the data from our previous assay with Compound A at 15 mg/kg. The percentage of fat and the lean mass of non-obese littermates (always fed with standard diet, SD) is shown in orange for reference.
Mice were fed either with a standard chow diet (Harlan Teklad 2018, 18% calories from fat) or, when indicated, with a high fat diet (Research Diets D12451, 45% of total calories from fat). To measure food intake, mice were housed in metabolic cages during 5 days, and food and water intake, as well as, the output of faeces and urine were measured during the last 4 days. Body composition (fat and lean content) was determined by Dual energy X-ray Absorptiometry (DXA) (Lunar PIXImus Densitometer, GE Medical Systems). […]

[4] = alone or in combination with forskolin

IC50 (phospho-Ser-473-Akt): 5 nM | IC50 [1]: < 1000 nM
Compound: CS(=O)(=O)N1CCN(Cc2cn3c(Cl)c(-c4cnc(N)nc4)nc(N4CCOCC4)c3n2)CC1 [Compound A]
levels of phospho-Akt [2]: severe decrease | Pgc1α expression [2, 4]: upregulation | Ucp1 expression [2, 4]: upregulation | fat mass (DXA) [3]: loss of fat mass | lean mass (DXA) [3]: not to a loss of lean mass
